Data from ChEMBL document CHEMBL1140663, “Effect of the minor ABA metabolite 7'-hydroxy-ABA on Arabidopsis ABA 8'-hydroxylase CYP707A3” (Bioorg Med Chem Lett, 2007).

Key:
[1] = molecular target: T1, Abscisic acid 8'-hydroxylase 3 (Arabidopsis thaliana, UniProt Q9FH76); assay: Inhibition of recombinant CYP707A3 at 5 uM
T1 sequence (Q9FH76 whole entry): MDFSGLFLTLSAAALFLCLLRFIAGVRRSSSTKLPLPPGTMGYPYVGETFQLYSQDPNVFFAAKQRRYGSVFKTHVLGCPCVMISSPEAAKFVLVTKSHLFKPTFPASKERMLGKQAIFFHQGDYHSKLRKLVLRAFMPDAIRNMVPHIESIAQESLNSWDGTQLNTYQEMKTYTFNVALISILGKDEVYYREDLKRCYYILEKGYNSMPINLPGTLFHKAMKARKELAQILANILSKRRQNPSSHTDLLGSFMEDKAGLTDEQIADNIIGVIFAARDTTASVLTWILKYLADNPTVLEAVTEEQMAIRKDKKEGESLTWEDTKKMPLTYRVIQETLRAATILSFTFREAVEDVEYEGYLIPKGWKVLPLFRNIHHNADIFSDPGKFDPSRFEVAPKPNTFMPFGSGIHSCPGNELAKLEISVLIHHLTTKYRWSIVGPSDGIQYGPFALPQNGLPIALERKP

[2] = molecular target: T1, Abscisic acid 8'-hydroxylase 3; assay: Inhibition of recombinant CYP707A3 at 50 uM

Compound	inhibition at 5 µM [1]	inhibition at 50 µM [2]
CC(=C/C(=O)O)/C=C/[C@@]1(O)C(C=O)=CC(=O)CC1(C)C	15%	63%
CC(=C/C(=O)O)/C=C/[C@H]1C(CO)=CC(=O)CC1(C)C	0%	24%
CC(=C/C(=O)O)/C=C/[C@@]1(O)C(CO)=CC(=O)CC1(C)C	0%	0%
